This passage reports TGI results from PubChem BioAssay (NCI).

Some test systems named below: SK-MEL-28 melanoma; CCRF-CEM leukemia; UACC-257 melanoma; MCF7 breast; UACC-62 melanoma; HT29 colon; SW-620 colon; SF-295 CNS; A549 NSCLC; SK-MEL-5 melanoma.
What all share (assay): growth of human tumour cells (NCI), 48 h

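Results reflect a 48-hour exposure of cells in 96-well plates to compound at five concentrations. TGI is the concentration that stops growth completely.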

For the molecule `COc1cc(Br)c(OC)c2c(OC)cc(C)cc12`, the TGI in the assay on SK-MEL-28 melanoma, in the assay with CCRF-CEM leukemia, with UACC-257 melanoma, with MCF7 breast, in the assay on UACC-62 melanoma and in the assay on HT29 colon was above 100 µM each time. For the same molecule, the TGI with SW-620 colon and in the assay with SF-295 CNS was above 100 µM throughout.

`COc1ccc(Br)c2c1CC(C(=O)O)CC2` (configuration not stated): the TGI in the assay with SK-MEL-28 melanoma, in the assay on CCRF-CEM leukemia, in the assay on UACC-257 melanoma, in the assay with MCF7 breast, in the assay with UACC-62 melanoma and in the assay with A549 NSCLC was above 100 µM each time. The TGI in the assay on HT29 colon, in the assay on SW-620 colon, with SK-MEL-5 melanoma and with SF-295 CNS was above 100 µM in each case.

`Nc1ccn(C2CC(O)C(COP(O)(=S)OC3CC(n4ccc(N)nc4=O)OC3CO)O2)c(=O)n1` (configuration not stated): the TGI in the assay on SK-MEL-28 melanoma, with CCRF-CEM leukemia, in the assay with UACC-257 melanoma, in the assay on MCF7 breast, in the assay with UACC-62 melanoma and in the assay with A549 NSCLC was above 100 µM in each case. Besides, the TGI in the assay with HT29 colon, with SW-620 colon, in the assay with SK-MEL-5 melanoma and in the assay on SF-295 CNS was above 100 µM throughout.

With `CCCCCC(=O)Nc1n[nH]nc1C(N)=O`, the TGI with SK-MEL-28 melanoma, in the assay on CCRF-CEM leukemia, in the assay with UACC-257 melanoma, in the assay with MCF7 breast, in the assay on UACC-62 melanoma and in the assay with A549 NSCLC was above 100 µM each time. The TGI with HT29 colon, with SW-620 colon, with SK-MEL-5 melanoma and in the assay with SF-295 CNS was above 100 µM in each case.

Turning to `CCOC(=O)NC(C(F)(F)F)(C(F)(F)F)P(=O)(OC(C)C)OC(C)C`, the TGI in the assay on SK-MEL-28 melanoma, in the assay with CCRF-CEM leukemia, in the assay on UACC-257 melanoma, with MCF7 breast, in the assay with UACC-62 melanoma and in the assay on A549 NSCLC was above 100 µM throughout. The TGI in the assay on HT29 colon, with SW-620 colon, in the assay with SK-MEL-5 melanoma and in the assay with SF-295 CNS was above 100 µM in each case.

`CC1=NC(=O)C(C)(c2ccccc2)N1CCc1ccccc1` (configuration not stated): the TGI in the assay with CCRF-CEM leukemia, with UACC-257 melanoma, in the assay with MCF7 breast, in the assay on UACC-62 melanoma, in the assay on A549 NSCLC and in the assay with HT29 colon was above 100 µM in each case. Besides, the TGI with SW-620 colon, with SK-MEL-5 melanoma and in the assay on SF-295 CNS was above 100 µM each time.

On to `O=C1c2cc3c(cc2CC12Cc1cc4c(cc1C2=O)CCCC4)CCCC3`, for which the TGI in the assay with SK-MEL-28 melanoma was above 100 µM; in the assay on CCRF-CEM leukemia, above 100 µM; in the assay on UACC-257 melanoma, 82.1 µM; with MCF7 breast, above 100 µM; in the assay with UACC-62 melanoma, above 100 µM; in the assay on A549 NSCLC it was above 100 µM. Further, the TGI in the assay on HT29 colon was above 100 µM; in the assay with SW-620 colon it was above 100 µM; in the assay on SK-MEL-5 melanoma, above 100 µM; with SF-295 CNS it was 69 µM.

As for `O=S1(=O)c2cnccc2NC(=NCc2cccc3ccccc23)N1c1ccccc1`, the TGI in the assay on SK-MEL-28 melanoma, with CCRF-CEM leukemia, with UACC-257 melanoma, in the assay with MCF7 breast, in the assay on UACC-62 melanoma and with A549 NSCLC was above 100 µM each time. The TGI in the assay on HT29 colon, in the assay with SW-620 colon, with SK-MEL-5 melanoma and in the assay with SF-295 CNS was above 100 µM throughout.

Turning to `COC(=O)N1C[C@@]2(C=CC3(CC2)OCCO3)c2ccccc21`, the TGI in the assay on SK-MEL-28 melanoma, in the assay with CCRF-CEM leukemia, in the assay on UACC-257 melanoma, in the assay on MCF7 breast, in the assay with UACC-62 melanoma and with A549 NSCLC was above 100 µM in each case. For the same molecule, the TGI in the assay on HT29 colon, with SW-620 colon, in the assay on SK-MEL-5 melanoma and in the assay with SF-295 CNS was above 100 µM each time.

For the molecule `O=C(O)C(=C\c1ccc2c(c1)OCO2)/C(=C/c1ccc2c(c1)OCO2)C(=O)O`, the TGI with SK-MEL-28 melanoma, in the assay with CCRF-CEM leukemia, with UACC-257 melanoma, with MCF7 breast, with UACC-62 melanoma and in the assay with HT29 colon was above 100 µM in each case. In addition, the TGI with SW-620 colon, in the assay on SK-MEL-5 melanoma and in the assay with SF-295 CNS was above 100 µM in each case.

Consider `CCOC(=O)c1nc2ccc(C(F)(F)F)cc2nc1NCc1ccc(Cl)c(Cl)c1`, for which the TGI with CCRF-CEM leukemia was above 100 µM; in the assay with UACC-257 melanoma, above 100 µM; in the assay with MCF7 breast, above 100 µM; in the assay on UACC-62 melanoma, above 100 µM; with A549 NSCLC it was above 100 µM; in the assay with HT29 colon it was 90.9 µM. Moreover, the TGI was above 100 µM with SW-620 colon, above 100 µM in the assay on SK-MEL-5 melanoma and 69.9 µM in the assay with SF-295 CNS.

Regarding `Cc1occc1C(=S)Nc1ccc(Cl)c(C(=O)OCC(F)(F)F)c1`, the TGI with SK-MEL-28 melanoma turned out to be 42.6 µM; in the assay with CCRF-CEM leukemia, 57.7 µM; in the assay with UACC-257 melanoma, 55.9 µM; in the assay on MCF7 breast, 43 µM; with UACC-62 melanoma, 32 µM; in the assay on A549 NSCLC it was 58.4 µM. For the same molecule, the TGI came to 33.7 µM in the assay with HT29 colon, 56.3 µM in the assay on SW-620 colon and 30.9 µM in the assay with SK-MEL-5 melanoma.

As to `NCCCNCCCNCCCN`, the TGI in the assay with SK-MEL-28 melanoma, in the assay on UACC-257 melanoma, with MCF7 breast, in the assay with UACC-62 melanoma, with A549 NSCLC and in the assay on HT29 colon was above 100 µM throughout. The TGI in the assay with SW-620 colon, in the assay on SK-MEL-5 melanoma and in the assay on SF-295 CNS was above 100 µM each time.

With `C[C@H]1[C@H](C)N(Cc2ccccc2)P(=O)(C(O)/C=C/c2ccccc2)N1Cc1ccccc1` (some centres not stated), the TGI is above 25 µM in the assay on SK-MEL-28 melanoma; 14.6 µM in the assay on UACC-257 melanoma; above 25 µM in the assay on MCF7 breast; 8.13 µM with UACC-62 melanoma; above 25 µM in the assay with A549 NSCLC; 12.3 µM in the assay on HT29 colon. Further, the TGI was above 25 µM with SW-620 colon, 8.7 µM in the assay on SK-MEL-5 melanoma and 20.1 µM in the assay on SF-295 CNS.
